target: T1, soluble guanylate cyclase (Homo sapiens, UniProt Q02153); experiment: CHO cellular assay (cGMP production, Cisbio cGMP HTRF); assay type: cell-based; settings: CHO K1 cells overexpressing human GUCYA3/GUCYB3 (clone 8E10), 1 mM IBMX, 20 uM ODQ, 1 h room temperature, listed 0.5 nM means actual EC50 ≤0.5 nM (quantification limit)
T1 construct: expressed in transfected cells
From the text: Chinese hamster ovary (CHO) cells overexpressing soluble guanylate cyclase were generated to test the effect of sGC activators in a cellular context. Human cDNAs for GUCYA3 (RefSeq: NM_000856.3) and GUCYB3 (RefSeq: NM_000857.1) were amplified by PCR from a HUVEC (Human Umbilical Vein Endothelial Cells) cDNA library and cloned into mammalian expression vectors. CHO K1 cells (ATCC CCL-61) were transfected using Lipofectamine 2000 following manufacturer's instructions and stably expressing clones were identified by antibiotic selection. CHO GUCY clone 8E10 was used for subsequent experiments.
Cells were seeded at a density of 3000 cells/well in white 384-well proxyplates (Perkin Elmer) and incubated overnight, then the medium was removed and cells were washed with assay buffer (HBSS, 0.1% BSA, 1 mM IBMX, 20 uM ODQ). sGC activators were serially diluted in DMSO, then diluted in assay buffer prior to adding to cells (10 ul/well, final DMSO concentration 0.5%). Cells were incubated with compounds for 1 h room temperature, then assayed for cGMP production using Cisbio cGMP HTRF kit (62GM2PEC) according to manufacturer's instructions.
The EC50s are calculated based on the amount of cGMP interpolated from the standard curve, using a 4-parameter sigmoidal dose-response.
Compounds of invention are active on sGC activation. Data on Table 1 collected using the assay of Biological Example 1. The minimum EC50 quantification limit of the assay is 0.5 nM, therefore any compound listed as having an EC50 value of 0.5 nM has a actual EC50 of ≤0.5 nM.

T1 sequence (Q02108 whole entry partner): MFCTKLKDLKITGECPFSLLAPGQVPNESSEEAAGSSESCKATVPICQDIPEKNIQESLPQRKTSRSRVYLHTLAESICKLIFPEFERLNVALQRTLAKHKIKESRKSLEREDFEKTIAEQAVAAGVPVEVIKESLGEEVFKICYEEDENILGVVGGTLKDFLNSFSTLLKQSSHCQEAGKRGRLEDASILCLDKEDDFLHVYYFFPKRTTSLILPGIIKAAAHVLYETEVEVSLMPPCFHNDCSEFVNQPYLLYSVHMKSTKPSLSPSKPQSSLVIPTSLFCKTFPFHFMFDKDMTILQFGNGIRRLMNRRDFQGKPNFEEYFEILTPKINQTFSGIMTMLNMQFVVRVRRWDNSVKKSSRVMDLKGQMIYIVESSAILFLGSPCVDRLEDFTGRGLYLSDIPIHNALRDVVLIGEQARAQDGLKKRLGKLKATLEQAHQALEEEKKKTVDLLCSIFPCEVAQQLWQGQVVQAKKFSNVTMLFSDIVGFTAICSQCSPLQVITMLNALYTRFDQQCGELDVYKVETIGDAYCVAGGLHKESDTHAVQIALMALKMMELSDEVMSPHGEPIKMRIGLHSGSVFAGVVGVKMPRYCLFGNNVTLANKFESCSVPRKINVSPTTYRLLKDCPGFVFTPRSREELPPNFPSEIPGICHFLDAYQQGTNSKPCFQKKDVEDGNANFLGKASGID
T1 sequence (Q02153 whole entry): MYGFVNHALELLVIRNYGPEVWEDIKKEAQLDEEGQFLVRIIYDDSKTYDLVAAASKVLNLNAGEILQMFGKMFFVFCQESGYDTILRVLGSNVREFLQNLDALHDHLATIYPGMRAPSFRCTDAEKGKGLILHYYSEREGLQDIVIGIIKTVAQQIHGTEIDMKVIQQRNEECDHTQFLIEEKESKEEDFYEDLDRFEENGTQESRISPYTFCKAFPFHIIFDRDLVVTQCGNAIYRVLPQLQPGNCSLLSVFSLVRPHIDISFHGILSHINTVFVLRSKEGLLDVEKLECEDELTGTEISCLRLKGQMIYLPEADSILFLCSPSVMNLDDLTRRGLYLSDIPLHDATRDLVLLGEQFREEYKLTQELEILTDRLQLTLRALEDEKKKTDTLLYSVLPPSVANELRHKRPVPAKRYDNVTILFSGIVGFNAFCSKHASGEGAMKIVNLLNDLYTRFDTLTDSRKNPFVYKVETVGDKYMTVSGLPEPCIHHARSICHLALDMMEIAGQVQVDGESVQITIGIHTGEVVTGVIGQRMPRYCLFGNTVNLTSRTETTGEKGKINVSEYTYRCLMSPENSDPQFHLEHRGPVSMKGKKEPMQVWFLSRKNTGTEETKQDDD

Row | SMILES | EC50 [nM]
1 | Cc1cc(C2CCN(C(=O)C3CC3)CC2)ccc1OCC1=C(c2cccc(-n3ncc(C(=O)O)c3C(F)(F)F)c2)CC(C)CC1 (racemic) [Example 28, (±)-1-(6′-((4-(1-(Cyclopropanecarbonyl)piperidin-4-yl)-2-methylphenoxy)methyl)-3′-methyl-2′,3′,4′,5′-tetrahydro-[1,1-biphenyl]-3-yl)-5-(trifluoromethyl)-1H-pyrazole-4-carboxylic acid] | 22
2 | Cc1cc(C2CCN(C(=O)C3CC3)CC2)ccc1OCC1=C(c2cccc(-n3ncc(C(=O)O)c3C(F)(F)F)n2)CC(C)CC1 (single isomer, unassigned; (+)) [Example 12 (+), (+)-1-(6-(2-((4-(1-(cyclopropanecarbonyl)piperidin-4-yl)-2-methylphenoxy)methyl)-5-methylcyclohex-1-en-1-yl)pyridin-2-yl)-5-(trifluoromethyl)-1H-pyrazole-4-carboxylic acid] | ≤ 0.5
3 | CCc1cc(OCC2=C(c3cccc(-n4ncc(C(=O)O)c4C(F)(F)F)n3)CCCC2C)ccc1C1CCN(C(=O)C2CC2)CC1 (single isomer, unassigned; (+)) [Example 13a, (+)-1-(6-(2-((4-(1-(Cyclopropanecarbonyl)piperidin-4-yl)-3-ethylphenoxy)methyl)-3-methylcyclohex-1-en-1-yl)pyridin-2-yl)-5-(trifluoromethyl)-1H-pyrazole-4-carboxylic acid] | 1
4 | Cc1cc(C2CCN(C(=O)C3CC3)CC2)ccc1OCC1=C(c2cccc(-n3ncc(C(=O)O)c3C(F)(F)F)n2)CCCC1C (single isomer, unassigned; (+)) [Example 15a, (+)-1-(6-(2-((4-(1-(cyclopropanecarbonyl)piperidin-4-yl)-2-methylphenoxy)methyl)-3-methylcyclohex-1-en-1-yl)pyridin-2-yl)-5-(trifluoromethyl)-1H-pyrazole-4-carboxylic acid] | ≤ 0.5
5 | CCc1cc(OCC2=C(c3cccc(-n4ncc(C(=O)O)c4C(F)F)n3)CCCC2C)ccc1C1CCN(C(=O)C2CC2)CC1 (single isomer, unassigned; (+)) [Example 20(b) (+), (+)-1-(6-(2-((4-(1-(cyclopropanecarbonyl)piperidin-4-yl)-3-ethylphenoxy)methyl)-3-methylcyclohex-1-en-1-yl)pyridin-2-yl)-5-(difluoromethyl)-1H-pyrazole-4-carboxylic acid] | ≤ 0.5
6 | CCc1cc(OCC2=C(c3cccc(-n4ncc(C(=O)O)c4C(F)(F)F)n3)CCC2C)ccc1C1CCN(C(=O)C2CC2)CC1 (single isomer, unassigned; (+)) [Example 22(b) (+), (+)-1-(6-(2-((4-(1-(cyclopropanecarbonyl)piperidin-4-yl)-3-ethylphenoxy)methyl)-3-methylcyclopent-1-en-1-yl)pyridin-2-yl)-5-(trifluoromethyl)-1H-pyrazole-4-carboxylic acid] | 1
7 | Cc1cc(C2CCN(C(=O)C3CC3)CC2)ccc1OCC1=C(c2cccc(-n3ncc(C(=O)O)c3C(F)(F)F)n2)CC(C)CC1 (single isomer, unassigned; (-)) [Example 12 (−), (−)-1-(6-(2-((4-(1-(cyclopropanecarbonyl)piperidin-4-yl)-2-methylphenoxy)methyl)-5-methylcyclohex-1-en-1-yl)pyridin-2-yl)-5-(trifluoromethyl)-1H-pyrazole-4-carboxylic acid] | ≤ 0.5
8 | CCc1cc(OCC2=C(c3cccc(-n4ncc(C(=O)O)c4C(F)(F)F)n3)CCCC2C)ccc1C1CCN(C(=O)C2CC2)CC1 (single isomer, unassigned; (-)) [Example 13b, (−)-1-(6-(2-((4-(1-(Cyclopropanecarbonyl)piperidin-4-yl)-3-ethylphenoxy)methyl)-3-methylcyclohex-1-en-1-yl)pyridin-2-yl)-5-(trifluoromethyl)-1H-pyrazole-4-carboxylic acid] | 9
9 | Cc1cc(C2CCN(C(=O)C3CC3)CC2)ccc1OCC1=C(c2cccc(-n3ncc(C(=O)O)c3C(F)(F)F)n2)CCCC1C (single isomer, unassigned; (-)) [Example 15b, (−)-1-(6-(2-((4-(1-(Cyclopropanecarbonyl)piperidin-4-yl)-2-methylphenoxy)methyl)-3-methylcyclohex-1-en-1-yl)pyridin-2-yl)-5-(trifluoromethyl)-1H-pyrazole-4-carboxylic acid] | 1
10 | CCc1cc(OCC2=C(c3cccc(-n4ncc(C(=O)O)c4C(F)F)n3)CCCC2C)ccc1C1CCN(C(=O)C2CC2)CC1 (single isomer, unassigned; (-)) [Example 20b (−), (−)-1-(6-(2-((4-(1-(cyclopropanecarbonyl)piperidin-4-yl)-3-ethylphenoxy)methyl)-3-methylcyclohex-1-en-1-yl)pyridin-2-yl)-5-(difluoromethyl)-1H-pyrazole-4-carboxylic acid] | 2
11 | CCc1cc(OCC2=C(c3cccc(-n4ncc(C(=O)O)c4C(F)(F)F)n3)CCC2C)ccc1C1CCN(C(=O)C2CC2)CC1 (single isomer, unassigned; (-)) [Example 22(b) (−), (−)-1-(6-(2-((4-(1-(cyclopropanecarbonyl)piperidin-4-yl)-3-ethylphenoxy)methyl)-3-methylcyclopent-1-en-1-yl)pyridin-2-yl)-5-(trifluoromethyl)-1H-pyrazole-4-carboxylic acid] | 5.5

Other lines, results leading:

Row | EC50 [nM] | SMILES
12 | 3.9 | CC1CCCC(c2cccc(-n3ncc(C(=O)O)c3C(F)(F)F)n2)=C1COc1ccc2c(c1)CCN(Cc1ccccn1)C2 (racemic) [Example 29-1, (±)-1-(6-(3-Methyl-2-(((2-(pyridin-2-ylmethyl)-1,2,3,4-tetrahydroisoquinolin-6-yl)oxy)methyl)cyclohex-1-en-1-yl)pyridin-2-yl)-5-(trifluoromethyl)-1H-pyrazole-4-carboxylic acid]
13 | 420 | O=C(O)c1cnn(-c2cccc(C3=C(COc4ccc([C@H]5CCN(C(=O)C6CC6)C[C@@H]5O)cc4)CCCC3)n2)c1C(F)(F)F (racemic) [Example 29-2, (±)-1-(6-(2-((4-((3,4-trans)-1-(cyclopropanecarbonyl)-3-hydroxypiperidin-4-yl)phenoxy)methyl)cyclohex-1-en-1-yl)pyridin-2-yl)-5-(trifluoromethyl)-1H-pyrazole-4-carboxylic acid]
14 | ≤ 0.5 | CCc1cc(OCC2=C(c3cccc(-n4ncc(C(=O)O)c4C)n3)CCCC2C)ccc1C1CCN(C(=O)C2CC2)CC1 (single isomer, unassigned; (+)) [Example 16a, (+)-1-(6-(2-((4-(1-(Cyclopropanecarbonyl)piperidin-4-yl)-3-ethylphenoxy)methyl)-3-methylcyclohex-1-en-1-yl)pyridin-2-yl)-5-methyl-1H-pyrazole-4-carboxylic acid]
15 | ≤ 0.5 | CCc1cc(OCC2=C(c3cccc(-n4ncc(C(=O)O)c4CC)n3)CCCC2C)ccc1C1CCN(C(=O)C2CC2)CC1 (single isomer, unassigned; (+)) [Example 17a, (+)-1-(6-(2-((4-(1-(Cyclopropanecarbonyl)piperidin-4-yl)-3-ethylphenoxy)methyl)-3-methylcyclohex-1-en-1-yl)pyridin-2-yl)-5-ethyl-1H-pyrazole-4-carboxylic acid]
16 | 3 | CCc1cc(OCC2=C(c3cccc(-n4ncc(C(=O)O)c4C)n3)CCCC2C)ccc1C1CCN(C(=O)C2CC2)CC1 (single isomer, unassigned; (-)) [Example 16b, (−)-1-(6-(2-((4-(1-(Cyclopropanecarbonyl)piperidin-4-yl)-3-ethylphenoxy)methyl)-3-methylcyclohex-1-en-1-yl)pyridin-2-yl)-5-methyl-1H-pyrazole-4-carboxylic acid]
17 | 1.4 | CCc1cc(OCC2=C(c3cccc(-n4ncc(C(=O)O)c4CC)n3)CCCC2C)ccc1C1CCN(C(=O)C2CC2)CC1 (single isomer, unassigned; (-)) [Example 17b, (−)-1-(6-(2-((4-(1-(Cyclopropanecarbonyl)piperidin-4-yl)-3-ethylphenoxy)methyl)-3-methylcyclohex-1-en-1-yl)pyridin-2-yl)-5-ethyl-1H-pyrazole-4-carboxylic acid]
18 | ≤ 0.5 | CCc1cc(OCC2=C(c3cccc(-n4ncc(C(=O)O)c4CC)n3)CCCC2C)ccc1C1CCN(C(=O)[C@H](C)O)CC1 (single isomer, unassigned; diastereomer-1) [Example 18a]
19 | ≤ 0.5 | CCc1cc(OCC2=C(c3cccc(-n4ncc(C(=O)O)c4C)n3)CCCC2C)ccc1C1CCN(C(=O)[C@H](C)O)CC1 (single isomer, unassigned; diastereomer-1) [Example 19a]
20 | 8.9 | CCc1cc(OCC2=C(c3cccc(-n4ncc(C(=O)O)c4CC)n3)CCCC2C)ccc1C1CCN(C(=O)[C@H](C)O)CC1 (single isomer, unassigned; diastereomer-2) [Example 18b]
21 | 8 | CCc1cc(OCC2=C(c3cccc(-n4ncc(C(=O)O)c4C)n3)CCCC2C)ccc1C1CCN(C(=O)[C@H](C)O)CC1 (single isomer, unassigned; diastereomer-2) [Example 19b]

— US9957254B2, “Cyclohexen-1-yl-pyridin-2-yl-1h-pyrazole-4-carboxylic acid derivatives and the use thereof as soluble guanylate cyclase activators” (Novartis AG, priority 2014, dated 2018)
